Source: patent US10316017B2, “COT modulators and methods of use thereof” (Gilead Sciences, Inc., priority 2015, dated 2019)

Key:
[1] = system: TNFα production in LPS-stimulated human monocytes; assay: Cot Monocyte TNFα Cell Based Assay; settings: Homo sapiens, Monocyte, TNFα in LPS-stimulated human monocytes; read-out: EC50 TNF
Procedure, shortened: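 Cells at 5,000/well were pretreated with compound for 1 h at 37 °C (0.5% DMSO final), then stimulated with 50 pg/ml LPS for 4 h at 37 °C. Supernatant TNFα was measured by two-antibody TR-FRET after overnight room-temperature incubation; values are percent of control between unstimulated and stimulated wells.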

[2] = molecular target: T1, human Cot catalytic domain (30-397 amino acids) (Homo sapiens, UniProt P41279); assay: High Throughput Cot Biochemical Assay (KinEASE TR-FRET); settings: Cot KinEASE TR-FRET (HTRF) biochemical assay, 400 μM ATP; read-out: IC50 HTRF
T1 construct: Purified recombinant human Cot catalytic domain (30-397 amino acids) was purchased from Cama Biosciences; purchased Cama Biosciences (so in the source)
Procedure, shortened: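 Reaction of 5 nM recombinant human Cot catalytic domain (aa 30-397) with 1 μM STK3 peptide (XL665-labeled) and 400 μM ATP in 10 mM MOPS pH 7.0, 10 mM MgOAc, 1 mM DTT, 0.5 mg/mL BSA, 0.1% DMSO. Phosphopeptide detected by TR-FRET with europium anti-phospho antibody.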

T1 sequence (P41279 30-397): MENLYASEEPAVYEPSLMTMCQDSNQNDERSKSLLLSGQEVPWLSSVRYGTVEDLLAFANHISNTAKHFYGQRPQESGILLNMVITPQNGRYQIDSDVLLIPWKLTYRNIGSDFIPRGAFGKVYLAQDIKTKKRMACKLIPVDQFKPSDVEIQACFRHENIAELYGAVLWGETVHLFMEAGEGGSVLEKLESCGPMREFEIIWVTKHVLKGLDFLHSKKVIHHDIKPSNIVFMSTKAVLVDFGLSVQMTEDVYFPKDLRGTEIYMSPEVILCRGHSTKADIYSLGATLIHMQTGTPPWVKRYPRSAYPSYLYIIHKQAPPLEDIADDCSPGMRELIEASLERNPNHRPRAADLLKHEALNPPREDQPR

Row | EC50 [1] [nM] | IC50 [2] [nM] | Compound
1 | 210 | 17 | [2H][C@](Nc1cc(Cl)c2ncc(C#N)c(NCC(C)(C)C)c2c1)(c1cn(C(C)(C)C)nn1)c1ccccc1Cl [Example 109, 6-(((1-(tert-butyl)-1H-1,2,3-triazol-4-yl) (2-chlorophenyl)methyl-d)amino)-8-chloro-4-(neopentylamino) quinoline-3-carbonitrile]
2 | 133 | 16 | [2H][C@](Nc1cc(Cl)c2ncc(C#N)c(Nc3cccc(Cl)c3OC3CC3)c2c1)(c1ccc(F)cc1)c1cn(C2CC2)nn1 [Example 110, (S)-8-chloro-4-((3-chloro-2-cyclopropoxyphenyl)amino)-6-(((1-cyclopropyl-1H-1,2,3-triazol-4-yl)(4-fluorophenyl)methyl-d)amino) quinoline-3-carbonitrile]
3 | 960 | 72 | [2H][C@](Nc1cc(Cl)c2ncc(C#N)c(N[C@@H](c3ccccc3)[C@@H]3C[C@H]3C#N)c2c1)(c1ccc(F)cc1)c1cn(C2CC2)nn1 [Example 111, 8-chloro-4-(((R)-((1R,2R)-2-cyanocyclopropyl) (phenyl)methyl)amino)-6-(((S)-(1-cyclopropyl-1H-1,2,3-triazol-4-yl)(4-fluorophenyl)methyl-d)amino)quinoline-3-carbonitrile]
4 | 190 | 6 | CC(C)(C)CNc1c(C#N)cnc2c(Cl)cc(N[C@H](c3cn(C4CC4)nn3)c3ccccc3CO)cc12 [Example 114, (S)-8-chloro-6-(((1-cyclopropyl-1H-1,2,3-triazol-4-yl)(2-(hydroxymethyl)phenyl)methyl)amino)-4-(neopentylamino) quinoline-3-carbonitrile]
5 | > 10000 | 3 | CC[C@@H](Nc1c(C#N)cnc2c(Cl)cc(N[C@@H](c3ccc(F)cc3)c3cn(CC(=O)O)nn3)cc12)c1ccccc1 [Example 115, 2-(4-((S)-((8-chloro-3-cyano-4-(((R)-1-phenylpropyl)amino)quinolin-6-yl)amino)(4-fluorophenyl)methyl)-1H-1,2,3-triazol-1-yl) acetic acid]
6 | > 10000 | 14 | [2H][C@](Nc1cc(Cl)c2ncc(C#N)c(Nc3ccc(F)c(Cl)c3)c2c1)(c1ccc(F)cc1)c1cn(CC(=O)O)nn1 [Example 116, (S)-2-(4-(((8-chloro-4-((3-chloro-4-fluorophenyl)amino)-3-cyanoquinolin-6-yl)amino)(4-fluorophenyl)methyl-d)-1H-1,2,3-triazol-1-yl)acetic acid]
7 | 166 | 26 | [2H][C@](Nc1cc(Cl)c2ncc(C#N)c(NCC(C)(C)C)c2c1)(c1cn(CC#N)nn1)c1ccccc1Cl [Example 119, 8-chloro-6-(((2-chlorophenyl)(1-(cyanomethyl)-1H-1,2,3-triazol-4-yl)methyl-d)amino)-4-(neopentylamino) quinoline-3-carbonitrile]

The next lines start with the compound.

Row | Compound | EC50 [1] [nM] | IC50 [2] [nM]
8 | [2H][C@](Nc1cc(Cl)c2ncc(C#N)c(N[C@H](CCC#N)c3ccccc3)c2c1)(c1cn(C2CC2)nn1)c1ccccc1Cl [Example 89, 8-chloro-6-(((2-chlorophenyl) (1-cyclopropyl-1H-1,2,3-triazol-4-yl)methyl-d)amino)-4-(((R)-3-cyano-1-phenylpropyl)amino) quinoline-3-carbonitrile] | 38 | 2
9 | [2H][C@](Nc1cc(Cl)c2ncc(C#N)c(NCC(C)(C)C)c2c1)(c1cn(CC2CCO2)nn1)c1ccccc1Cl (stereo partly shown) [Example 90, 8-chloro-6-(((2-chlorophenyl) (1-(oxetan-2-ylmethyl)-1H-1,2,3-triazol-4-yl)methyl-d)amino)-4-(neopentylamino) quinoline-3-carbonitrile] | 287 | 26
10 | [2H][C@](Nc1cc(Cl)c2ncc(C#N)c(NCC(C)(C)C)c2c1)(c1cn(CC(F)(F)F)nn1)c1ccccc1Cl [Example 93, 8-chloro-6-(((2-chlorophenyl) (1-(2,2,2-trifluoroethyl)-1H-1,2,3-triazol-4-yl)methyl-d)amino)-4-(neopentylamino) quinoline-3-carbonitrile] | 832 | 59
11 | CC[C@@H](Nc1c(C#N)cnc2c(Cl)cc(N[C@@H](c3cccc(-c4ccccc4)c3)c3cn(C4CC4)nn3)cc12)c1ccccc1 [Example 94, 6-(((S)-[1,1'-biphenyl]-3-yl(1-cyclopropyl-1H-1,2,3-triazol-4-yl)methyl)amino)-8-chloro-4-(((R)-1-phenylpropyl)amino) quinoline-3-carbonitrile] | > 1000 | 12
12 | CC(C)(C)CNc1c(C#N)cnc2c(Cl)cc(N[C@@H](c3cccc(-c4ccccc4)c3)c3cn(C4CC4)nn3)cc12 [Example 95, (S)-6-(([1,1'-biphenyl]-3-yl(1-cyclopropyl-1H-1,2,3-triazol-4-yl)methyl)amino)-8-chloro-4-(neopentylamino) quinoline-3-carbonitrile] | > 1000 | 24
13 | CC[C@@H](Nc1c(C#N)cnc2c(Cl)cc(N[C@H](c3cn(C4CC4)nn3)c3ccccc3-c3ccccc3)cc12)c1ccccc1 [Example 96, 6-(((S)[1,1'-biphenyl]-2-yl(1-cyclopropyl-1H-1,2,3-triazol-4-yl)methyl)amino)-8-chloro-4-(((R)-1-phenylpropyl)amino) quinoline-3-carbonitrile] | > 1000 | 778
14 | CC(C)(C)CNc1c(C#N)cnc2c(Cl)cc(N[C@H](c3cn(C4CC4)nn3)c3ccccc3-c3ccccc3)cc12 [Example 97, (S)-6-(([1,1'-biphenyl]-2-yl(1-cyclopropyl-1H-1,2,3-triazol-4-yl)methyl)amino)-8-chloro-4-(neopentylamino) quinoline-3-carbonitrile] | > 1000 | 985
15 | [2H][C@](Nc1cc(Cl)c2ncc(C#N)c(NCC(C)(C)C)c2c1)(c1cn(C2CC2(F)F)nn1)c1ccccc1Cl (stereo partly shown) [Example 99, 8-chloro-6-(((2-chlorophenyl) (1-(2,2-difluorocyclopropyl)-1H-1,2,3-triazol-4-yl)methyl-d)amino)-4-(neopentylamino) quinoline-3-carbonitrile] | 454 | 19
16 | [2H][C@](Nc1cc(Cl)c2ncc(C#N)c(NCC(C)(C)C)c2c1)(c1cn(C2[C@H]3CN(C4COC4)C[C@@H]23)nn1)c1ccccc1Cl (stereo partly drawn) [Example 100, 8-chloro-6-(((2-chlorophenyl) (1-((1R,5S,6r)-3-(oxetan-3-yl)-3-azabicyclo[3.1.0]hexan-6-yl)-1H-1,2,3-triazol-4-yl)methyl-d)amino)-4-(neopentylamino) quinoline-3-carbonitrile] | 337 | 16
17 | [2H][C@@](Nc1cc(Cl)c2ncc(C#N)c(NCC(C)(C)C)c2c1)(c1cn(C2CC2)nn1)c1c(F)cccc1Cl [Example 101, (S)-8-chloro-6-(((2-chloro-6-fluorophenyl) (1-cyclopropyl-1H-1,2,3-triazol-4-yl)methyl-d)amino)-4-(neopentylamino) quinoline-3-carbonitrile] | > 1000 | 83
18 | [2H][C@](Nc1cc(I)c2ncc(C#N)c(NCC(C)(C)C)c2c1)(c1ccc(F)cc1)c1cn(C2CC2)nn1 [Example 102, (S)-6-(((1-cyclopropyl-1H-1,2,3-triazol-4-yl)(4-fluorophenyl)methyl-d)amino)-8-iodo-4-(neopentylamino) quinoline-3-carbonitrile] | > 1000 | 58
19 | [2H][C@@](Nc1cc(Cl)c2ncc(C#N)c(NCC(C)(C)C)c2c1)(c1cn(CC2(F)COC2)nn1)c1ccccc1Cl [Example 103, 8-chloro-6-(((2-chlorophenyl) (1-((3-fluorooxetan-3-yl)methyl)-1H-1,2,3-triazol-4-yl)methyl-d)amino)-4-(neopentylamino) quinoline-3-carbonitrile] | 522 | 50
20 | [2H][C@@](Nc1cc(Cl)c2ncc(C#N)c(NCC(C)(C)C)c2c1)(c1cn(CC2(O)COC2)nn1)c1ccccc1Cl [Example 104, 8-chloro-6-(((2-chlorophenyl) (1-((3-hydroxyoxetan-3-yl)methyl)-1H-1,2,3-triazol-4-yl)methyl-d)amino)-4-(neopentylamino) quinoline-3-carbonitrile] | 584 | 23
21 | [2H]C(Nc1cc(Cl)c2ncc(C#N)c(NCC(C)(C)C)c2c1)(c1cn(C2(C(F)(F)F)CC2)nn1)c1ccccc1Cl (stereo not shown) [Example 106, 8-chloro-6-(((2-chlorophenyl) (1-(1-(trifluoromethyl)cyclopropyl)-1H-1,2,3-triazol-4-yl)methyl-d)amino)-4-(neopentylamino) quinoline-3-carbonitrile] | 826 | 58
22 | [2H]C(Nc1cc(Cl)c2ncc(C#N)c(NCC(C)(C)C)c2c1)(c1cn(C2(C)CC2)nn1)c1ccccc1Cl (stereo not shown) [Example 107, 8-chloro-6-(((2-chlorophenyl)(1-(1-methylcyclopropyl)-1H-1,2,3-triazol-4-yl)methyl-d)amino)-4-(neopentylamino) quinoline-3-carbonitrile] | 272 | 14
23 | [2H][C@@](Nc1cc(Cl)c2ncc(C#N)c(NCC(C)(C)C)c2c1)(c1cn(CC(=O)O)nn1)c1ccccc1Cl [Example 108, (S)-2-(4-(((8-chloro-3-cyano-4-(neopentylamino)quinolin-6-yl)amino)(2-chlorophenyl)methyl-d)-1H-1,2,3-triazol-1-yl)acetic acid] | > 1000 | 48
